From ChEMBL document CHEMBL5653615 (J Biol Chem, 2013)
The source made the active and inactive calls. The rule behind the calls is not given here.

Experiments:
[1] = biological target: Serine/threonine-protein kinase 25 (Homo sapiens) (UniProt O00506); test: Inhibition of human YSK1 at 18.6 nM by HotSpot assay relative to control
[2] = biological target: Focal adhesion kinase 1 (Homo sapiens) (UniProt Q05397); test: Inhibition of human FAK at 18.6 nM by HotSpot assay relative to control
[3] = biological target: Ribosomal protein S6 kinase beta-1 (Homo sapiens) (UniProt P23443); test: Inhibition of human RPS6KB1 at 18.6 nM by HotSpot assay relative to control
[4] = biological target: Serine/threonine-protein kinase PAK 3 (Homo sapiens) (UniProt O75914); test: Inhibition of human PAK3 at 18.6 nM by HotSpot assay relative to control
[5] = biological target: T1, Testis-specific serine/threonine-protein kinase 1 (Homo sapiens) (UniProt Q9BXA7); test: Inhibition of human TSSK1 at 18.6 nM by HotSpot assay relative to control
T1 sequence (whole entry): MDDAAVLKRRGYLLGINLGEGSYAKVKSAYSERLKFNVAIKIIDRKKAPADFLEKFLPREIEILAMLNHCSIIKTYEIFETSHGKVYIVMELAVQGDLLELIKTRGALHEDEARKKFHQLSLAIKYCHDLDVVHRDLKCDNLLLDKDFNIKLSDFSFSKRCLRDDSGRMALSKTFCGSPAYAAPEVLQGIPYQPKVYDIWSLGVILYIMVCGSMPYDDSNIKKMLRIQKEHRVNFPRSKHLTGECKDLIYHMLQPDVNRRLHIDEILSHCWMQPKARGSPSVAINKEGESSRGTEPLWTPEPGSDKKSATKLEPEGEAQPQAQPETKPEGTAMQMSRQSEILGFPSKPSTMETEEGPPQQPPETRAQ

[6] = biological target: Death-associated protein kinase 3 (Homo sapiens) (UniProt O43293); test: Inhibition of human DAPK3 at 18.6 nM by HotSpot assay relative to control
[7] = biological target: Dual specificity tyrosine-phosphorylation-regulated kinase 1A (Homo sapiens) (UniProt Q13627); test: Inhibition of human DYRK1 at 18.6 nM by HotSpot assay relative to control
[8] = biological target: Ephrin type-A receptor 7 (Homo sapiens) (UniProt Q15375); test: Inhibition of human EPHA7 at 18.6 nM by HotSpot assay relative to control
[9] = tested on: CHO-K1; test: Inhibition of Insulin receptor M1153L mutant (unknown origin) transfected in CHO-K1 cell lysate at 10 uM for 30 mins on ice followed by insulin stimulation for 10 mins by Western blot analysis; type: subcellular; details: Homo sapiens, time 40.0 min
[10] = biological target: T2, Interleukin-1 receptor-associated kinase 4 (Homo sapiens) (UniProt Q9NWZ3); test: Inhibition of human IRAK4 at 1.82 nM by HotSpot assay relative to control
T2 sequence (whole entry): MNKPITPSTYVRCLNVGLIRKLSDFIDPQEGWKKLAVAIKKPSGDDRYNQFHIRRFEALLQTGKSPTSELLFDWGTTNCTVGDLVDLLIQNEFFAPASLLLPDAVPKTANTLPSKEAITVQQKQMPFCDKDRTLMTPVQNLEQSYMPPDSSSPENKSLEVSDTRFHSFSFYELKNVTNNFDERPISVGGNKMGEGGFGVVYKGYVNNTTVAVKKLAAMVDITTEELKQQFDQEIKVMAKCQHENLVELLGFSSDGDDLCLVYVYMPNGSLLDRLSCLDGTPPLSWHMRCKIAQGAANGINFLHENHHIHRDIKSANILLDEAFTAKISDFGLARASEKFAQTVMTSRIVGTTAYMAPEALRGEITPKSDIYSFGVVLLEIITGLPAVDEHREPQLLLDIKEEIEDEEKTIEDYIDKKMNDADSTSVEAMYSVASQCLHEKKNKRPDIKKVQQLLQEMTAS

[11] = biological target: T3, Serine/threonine-protein kinase BRSK2 (Homo sapiens) (UniProt Q8IWQ3); test: Inhibition of human BRSK2 at 1.82 nM by HotSpot assay relative to control
T3 sequence (whole entry): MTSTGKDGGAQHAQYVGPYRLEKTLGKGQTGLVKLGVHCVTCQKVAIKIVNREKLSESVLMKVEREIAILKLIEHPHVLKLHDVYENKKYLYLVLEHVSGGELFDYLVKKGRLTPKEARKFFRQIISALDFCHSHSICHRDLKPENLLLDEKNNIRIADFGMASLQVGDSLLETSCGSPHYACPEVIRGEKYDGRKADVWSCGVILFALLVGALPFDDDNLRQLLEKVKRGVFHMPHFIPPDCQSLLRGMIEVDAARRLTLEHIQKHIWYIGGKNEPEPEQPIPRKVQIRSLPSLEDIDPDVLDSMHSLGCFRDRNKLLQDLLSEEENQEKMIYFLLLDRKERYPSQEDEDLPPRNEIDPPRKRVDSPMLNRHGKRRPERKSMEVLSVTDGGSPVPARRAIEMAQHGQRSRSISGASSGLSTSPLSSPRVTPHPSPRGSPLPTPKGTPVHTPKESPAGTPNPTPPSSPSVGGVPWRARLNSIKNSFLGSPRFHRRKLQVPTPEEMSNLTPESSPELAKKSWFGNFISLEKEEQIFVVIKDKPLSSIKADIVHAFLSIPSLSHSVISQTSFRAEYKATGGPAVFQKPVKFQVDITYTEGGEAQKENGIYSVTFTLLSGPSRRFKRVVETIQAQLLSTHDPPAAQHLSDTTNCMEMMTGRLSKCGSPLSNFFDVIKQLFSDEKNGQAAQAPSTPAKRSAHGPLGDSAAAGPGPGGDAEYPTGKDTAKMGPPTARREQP

[12] = biological target: Dual specificity mitogen-activated protein kinase kinase 1 (Homo sapiens) (UniProt Q02750); test: Inhibition of human MEK1 at 1.82 nM by HotSpot assay relative to control
[13] = biological target: Homeodomain-interacting protein kinase 1 (Homo sapiens) (UniProt Q86Z02); test: Inhibition of human HIPK1 at 1.82 nM by HotSpot assay relative to control
Homeodomain-interacting protein kinase 1 (Homo sapiens), sequence (Q86Z02 whole entry, looked up): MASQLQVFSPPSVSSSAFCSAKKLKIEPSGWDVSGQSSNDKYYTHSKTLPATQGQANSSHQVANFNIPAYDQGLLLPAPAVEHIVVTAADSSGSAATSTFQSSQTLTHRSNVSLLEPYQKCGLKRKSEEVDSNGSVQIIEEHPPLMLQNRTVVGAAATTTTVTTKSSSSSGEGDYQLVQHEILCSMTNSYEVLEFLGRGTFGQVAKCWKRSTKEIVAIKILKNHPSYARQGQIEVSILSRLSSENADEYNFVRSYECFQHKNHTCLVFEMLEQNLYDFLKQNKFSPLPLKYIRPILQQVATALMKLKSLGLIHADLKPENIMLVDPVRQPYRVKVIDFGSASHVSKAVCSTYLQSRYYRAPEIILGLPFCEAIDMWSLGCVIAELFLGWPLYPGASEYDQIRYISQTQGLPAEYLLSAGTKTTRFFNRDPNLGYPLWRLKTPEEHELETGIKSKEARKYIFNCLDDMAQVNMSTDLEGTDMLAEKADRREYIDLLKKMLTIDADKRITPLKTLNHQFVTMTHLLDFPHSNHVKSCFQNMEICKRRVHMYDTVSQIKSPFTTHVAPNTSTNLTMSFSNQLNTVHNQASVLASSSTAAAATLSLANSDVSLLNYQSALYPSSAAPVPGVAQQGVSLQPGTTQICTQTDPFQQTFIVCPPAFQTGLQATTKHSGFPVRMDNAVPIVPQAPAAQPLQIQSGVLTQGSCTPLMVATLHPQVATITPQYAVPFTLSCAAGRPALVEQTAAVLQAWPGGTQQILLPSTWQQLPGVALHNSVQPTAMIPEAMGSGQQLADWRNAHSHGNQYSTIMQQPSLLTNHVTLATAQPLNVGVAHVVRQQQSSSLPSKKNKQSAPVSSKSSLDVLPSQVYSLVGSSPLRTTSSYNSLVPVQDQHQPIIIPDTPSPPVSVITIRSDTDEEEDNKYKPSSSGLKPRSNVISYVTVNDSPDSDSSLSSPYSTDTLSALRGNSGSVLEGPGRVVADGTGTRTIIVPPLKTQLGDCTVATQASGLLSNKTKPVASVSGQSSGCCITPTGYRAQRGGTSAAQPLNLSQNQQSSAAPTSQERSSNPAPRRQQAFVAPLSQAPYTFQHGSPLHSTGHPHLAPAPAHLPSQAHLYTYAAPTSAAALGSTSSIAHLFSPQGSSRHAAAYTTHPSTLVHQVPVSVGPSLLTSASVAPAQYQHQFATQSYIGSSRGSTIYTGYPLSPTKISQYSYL

Dual specificity mitogen-activated protein kinase kinase 1 (Homo sapiens), sequence (Q02750 whole entry): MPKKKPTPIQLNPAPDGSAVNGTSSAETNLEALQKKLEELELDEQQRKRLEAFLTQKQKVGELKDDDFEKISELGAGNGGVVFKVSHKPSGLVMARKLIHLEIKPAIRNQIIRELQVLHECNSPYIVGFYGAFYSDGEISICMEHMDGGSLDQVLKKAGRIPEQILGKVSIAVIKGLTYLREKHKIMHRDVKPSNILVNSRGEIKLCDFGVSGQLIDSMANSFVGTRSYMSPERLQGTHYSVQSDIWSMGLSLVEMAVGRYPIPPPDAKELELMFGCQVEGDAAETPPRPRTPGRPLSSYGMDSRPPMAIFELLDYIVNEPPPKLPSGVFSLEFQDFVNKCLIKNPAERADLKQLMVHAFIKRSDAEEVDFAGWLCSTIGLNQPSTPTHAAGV
Serine/threonine-protein kinase PAK 3 (Homo sapiens), sequence (O75914 whole entry, looked up): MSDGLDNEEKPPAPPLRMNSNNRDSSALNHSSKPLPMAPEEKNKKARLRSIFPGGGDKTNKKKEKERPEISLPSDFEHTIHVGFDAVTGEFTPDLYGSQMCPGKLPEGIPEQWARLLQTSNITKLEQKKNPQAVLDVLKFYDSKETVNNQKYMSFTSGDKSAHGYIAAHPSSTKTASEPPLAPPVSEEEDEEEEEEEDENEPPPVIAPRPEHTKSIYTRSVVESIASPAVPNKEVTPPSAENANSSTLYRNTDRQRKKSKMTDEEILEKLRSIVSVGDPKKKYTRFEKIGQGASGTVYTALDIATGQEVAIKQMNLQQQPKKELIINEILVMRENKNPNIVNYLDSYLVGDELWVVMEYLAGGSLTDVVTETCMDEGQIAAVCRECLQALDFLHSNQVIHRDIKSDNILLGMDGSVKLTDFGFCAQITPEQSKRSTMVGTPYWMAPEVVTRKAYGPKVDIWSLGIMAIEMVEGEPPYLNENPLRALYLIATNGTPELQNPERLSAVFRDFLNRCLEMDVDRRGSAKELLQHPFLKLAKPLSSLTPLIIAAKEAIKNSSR
Ribosomal protein S6 kinase beta-1 (Homo sapiens), sequence (P23443 whole entry, looked up): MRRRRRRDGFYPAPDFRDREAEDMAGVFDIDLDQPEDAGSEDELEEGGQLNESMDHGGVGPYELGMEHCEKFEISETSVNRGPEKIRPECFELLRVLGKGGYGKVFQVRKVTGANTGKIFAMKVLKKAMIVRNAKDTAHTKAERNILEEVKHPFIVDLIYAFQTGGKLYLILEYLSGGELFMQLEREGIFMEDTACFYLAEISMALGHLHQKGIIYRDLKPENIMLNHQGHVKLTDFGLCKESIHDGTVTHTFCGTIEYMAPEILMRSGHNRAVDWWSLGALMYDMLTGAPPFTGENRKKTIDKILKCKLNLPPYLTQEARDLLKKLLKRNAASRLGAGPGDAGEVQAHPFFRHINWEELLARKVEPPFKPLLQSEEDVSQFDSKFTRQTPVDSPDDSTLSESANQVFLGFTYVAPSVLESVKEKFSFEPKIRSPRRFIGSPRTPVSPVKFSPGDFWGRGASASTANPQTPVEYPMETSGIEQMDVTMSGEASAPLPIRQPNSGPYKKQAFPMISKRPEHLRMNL
Focal adhesion kinase 1 (Homo sapiens), sequence (Q05397 2-1052 limits assumed): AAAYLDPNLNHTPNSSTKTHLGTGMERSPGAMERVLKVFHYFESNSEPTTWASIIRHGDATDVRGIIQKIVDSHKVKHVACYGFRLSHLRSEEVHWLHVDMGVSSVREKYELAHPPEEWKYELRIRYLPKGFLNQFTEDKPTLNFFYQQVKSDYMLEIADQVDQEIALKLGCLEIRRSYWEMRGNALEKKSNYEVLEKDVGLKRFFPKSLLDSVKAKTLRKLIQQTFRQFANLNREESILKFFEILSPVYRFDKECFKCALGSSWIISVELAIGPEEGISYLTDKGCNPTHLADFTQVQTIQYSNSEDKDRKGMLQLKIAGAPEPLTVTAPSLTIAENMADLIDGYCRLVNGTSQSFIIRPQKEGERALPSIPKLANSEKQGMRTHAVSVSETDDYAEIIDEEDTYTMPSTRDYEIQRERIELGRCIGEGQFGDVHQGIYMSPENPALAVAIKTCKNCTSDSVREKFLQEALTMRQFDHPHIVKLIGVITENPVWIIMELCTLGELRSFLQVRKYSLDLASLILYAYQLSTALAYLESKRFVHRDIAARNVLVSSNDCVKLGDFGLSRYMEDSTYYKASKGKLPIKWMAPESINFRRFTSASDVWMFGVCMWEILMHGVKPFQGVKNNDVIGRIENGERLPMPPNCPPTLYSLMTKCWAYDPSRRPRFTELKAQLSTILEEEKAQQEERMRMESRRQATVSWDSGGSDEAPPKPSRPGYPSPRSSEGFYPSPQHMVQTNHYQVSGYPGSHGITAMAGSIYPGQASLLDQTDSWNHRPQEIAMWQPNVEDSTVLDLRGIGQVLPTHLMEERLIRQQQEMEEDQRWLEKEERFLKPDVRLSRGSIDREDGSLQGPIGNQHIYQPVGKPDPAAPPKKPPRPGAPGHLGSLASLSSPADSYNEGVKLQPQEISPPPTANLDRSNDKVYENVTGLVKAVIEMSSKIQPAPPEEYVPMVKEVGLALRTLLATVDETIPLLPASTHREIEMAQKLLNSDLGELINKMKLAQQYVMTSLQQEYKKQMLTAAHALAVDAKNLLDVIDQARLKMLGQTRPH
Death-associated protein kinase 3 (Homo sapiens), sequence (O43293 whole entry, looked up): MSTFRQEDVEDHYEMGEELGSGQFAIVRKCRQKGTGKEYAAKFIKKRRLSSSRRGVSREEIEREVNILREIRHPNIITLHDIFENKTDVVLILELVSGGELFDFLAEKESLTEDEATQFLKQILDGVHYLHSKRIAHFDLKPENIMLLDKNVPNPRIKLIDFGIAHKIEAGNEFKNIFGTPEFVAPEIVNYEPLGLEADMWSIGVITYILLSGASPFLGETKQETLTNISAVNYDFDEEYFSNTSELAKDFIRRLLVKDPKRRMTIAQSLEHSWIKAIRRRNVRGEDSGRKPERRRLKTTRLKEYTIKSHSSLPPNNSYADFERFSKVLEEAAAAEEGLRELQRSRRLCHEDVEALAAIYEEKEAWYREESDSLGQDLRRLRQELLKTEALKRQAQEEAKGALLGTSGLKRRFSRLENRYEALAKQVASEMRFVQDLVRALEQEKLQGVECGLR
Serine/threonine-protein kinase 25 (Homo sapiens), sequence (O00506 whole entry, looked up): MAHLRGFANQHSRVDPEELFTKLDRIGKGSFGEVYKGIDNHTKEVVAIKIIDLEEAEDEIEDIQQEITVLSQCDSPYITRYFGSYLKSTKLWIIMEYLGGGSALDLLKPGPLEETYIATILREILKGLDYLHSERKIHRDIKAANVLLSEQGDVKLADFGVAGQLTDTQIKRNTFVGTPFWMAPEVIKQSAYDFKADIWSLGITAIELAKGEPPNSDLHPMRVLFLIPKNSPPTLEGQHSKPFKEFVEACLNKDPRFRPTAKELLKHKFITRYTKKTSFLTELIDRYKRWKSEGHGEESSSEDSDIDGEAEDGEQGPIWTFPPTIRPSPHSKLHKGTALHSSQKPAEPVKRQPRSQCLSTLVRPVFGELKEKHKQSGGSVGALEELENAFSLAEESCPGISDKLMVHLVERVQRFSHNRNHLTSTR

SMILES: C[C@]1(O)C[C@@H](c2nc(-c3ccc4ccc(-c5ccccc5)nc4c3)c3c(N)nccn32)C1
- inhibition [1]: -3.04%
- inhibition [2]: 1.73%
- inhibition [3]: -4.9%
- inhibition [4]: 2.16%
- inhibition [5]: -3.16%
- inhibition [6]: 6.02%
- inhibition [7]: -1.6%
- inhibition [8]: 2.17%

SMILES: Oc1n[nH]c2nnc(-c3c(-c4ccccc4)nn4ccccc34)cc12
- inhibition [9]: inactive

SMILES: C[C@@]1(C(=O)Nc2ccc(F)nc2)CCCN1c1nc(Nc2cc(C3CC3)n[nH]2)c2cccn2n1
- inhibition [10]: -4.67%
- inhibition [11]: -3.06%
- inhibition [12]: -6.3%
- inhibition [13]: -6.64%
